Measurements: patent US20160297833A1, “THIENOPYRIMIDINES AS MKNK1 AND MKNK2 INHIBITORS” (BAYER PHARMA AKTIENGESELLSCHAFT, priority 2013, published 2016)

Target: T1, human full-length MKNK1 (Homo sapiens, UniProt Q9BUB5, T385D)
T1 construct: GST (N); purchased Carna Biosciences 02-145; host or cells: insect cells (baculovirus expression system)
Experiment: MKNK1 kinase high ATP assay (TR-FRET)
Format: biochemical
Settings: Table 1; MKNK1 kinase high ATP assay, 2 mM ATP; read-out: MKNK1 IC50
Experimental: MKNK1 Kinase High ATP Assay
MKNK1-inhibitory activity at high ATP of compounds of the present invention after their preincubation with MKNK1 was quantified employing the TR-FRET-based MKNK1 high ATP assay as described in the following paragraphs.
As substrate for the kinase reaction the biotinylated peptide biotin-Ahx-[…] (C-terminus in amide form) was used, which can be purchased e.g. from the company Biosyntan (Berlin-Buch, Germany).
For the assay 50 nL of a 100 fold concentrated solution of the test compound in DMSO was pipetted into a black low volume 384 well microtiter plate (Greiner Bio-One, Frickenhausen, Germany), 2 μL of a solution of MKNK1 in aqueous assay buffer [50 mM HEPES pH 7.5, 5 mM MgCl2, 1.0 mM dithiothreitol, 0.005% (v/v) Nonidet-P40 (Sigma)] was added and the mixture was incubated for 15 min at 22° C. to allow pre-binding of the test compounds to the enzyme before the start of the kinase reaction. Then the kinase reaction was started by the addition of 3 μL of a solution of adenosine-tri-phosphate (ATP, 3.3 mM=>final conc. in the 5 μL assay volume is 2 mM) and substrate (0.1 μM=>final conc. in the 5 μL assay volume is 0.06 μM) in assay buffer and the resulting mixture was incubated for a reaction time of 30 min at 22° C. The concentration of MKNK1 was adjusted depending of the activity of the enzyme lot and was chosen appropriate to have the assay in the linear range, typical concentrations were in the range of 0.003 μg/mL. The reaction was stopped by the addition of 5 μL of a solution of TR-FRET detection reagents (5 nM streptavidine-XL665 [Cisbio Bioassays, Codolet, France] and 1 nM anti-ribosomal protein S6 (pSer236)-antibody from Invitrogen [#44921G] and 1 nM LANCE EU-W1024 labeled ProteinG [Perkin-Elmer, product no. AD0071]) in an aqueous EDTA-solution (100 mM EDTA, 0.1% (w/v) bovine serum albumin in 50 mM HEPES pH 7.5).
The resulting mixture was incubated for 1 h at 22° C. to allow the formation of complex between the phosphorylated biotinylated peptide and the detection reagents. Subsequently the amount of phosphorylated substrate was evaluated by measurement of the resonance energy transfer from the Eu-chelate to the streptavidine-XL. Therefore, the fluorescence emissions at 620 nm and 665 nm after excitation at 350 nm were measured in a TR-FRET reader, e.g. a Rubystar (BMG Labtechnologies, Offenburg, Germany) or a Viewlux (Perkin-Elmer). The ratio of the emissions at 665 nm and at 622 nm was taken as the measure for the amount of phosphorylated substrate.

T1 sequence (Q9BUB5 1-424 isoform Q9BUB5-2 T344D): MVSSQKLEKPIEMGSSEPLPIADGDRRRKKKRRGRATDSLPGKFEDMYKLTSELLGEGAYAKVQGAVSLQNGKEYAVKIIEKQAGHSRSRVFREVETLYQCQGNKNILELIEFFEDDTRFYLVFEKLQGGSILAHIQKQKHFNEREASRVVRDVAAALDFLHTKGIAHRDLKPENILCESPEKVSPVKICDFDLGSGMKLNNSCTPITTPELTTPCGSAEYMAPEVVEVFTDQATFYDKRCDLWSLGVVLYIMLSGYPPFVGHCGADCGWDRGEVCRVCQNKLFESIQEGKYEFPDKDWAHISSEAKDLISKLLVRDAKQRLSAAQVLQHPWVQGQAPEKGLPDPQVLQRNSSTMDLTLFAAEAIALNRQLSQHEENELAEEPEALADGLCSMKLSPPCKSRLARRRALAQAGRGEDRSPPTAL

Row | IC50 | Compound
1 | 7 nM | C[C@H]1COCCN1C(=O)[C@H]1CCc2c(sc3ncnc(Nc4cc5cn[nH]c5cc4F)c23)C1 [Example 227, {(7S)-4-[(6-Fluoro-1H-indazol-5-yl)amino]-5,6,7,8-tetrahydro[1]benzothieno[2,3-d]pyrimidin-7-yl}[(3S)-3-methylmorpholin-4-yl]methanone]
2 | 0.6 nM | CC(C)Oc1cc2[nH]ncc2cc1Nc1ncnc2sc3c(c12)CC[C@H](C(=O)N1CCOC[C@H]1C)C3 [Example 85, [(3R)-3-Methylmorpholin-4-yl][(7S)-4-{[6-(propan-2-yloxy)-1H-indazol-5-yl]amino}-5,6,7,8-tetrahydro[1]benzothieno[2,3-d]pyrimidin-7-yl]methanone]
3 | 1.2 nM | CC(C)Oc1cc2[nH]ncc2cc1Nc1ncnc2sc3c(c12)CC[C@H](C(=O)N1C[C@@H](C)O[C@@H](C)C1)C3 [Example 160, [(2R,6S)-2,6-dimethylmorpholin-4-yl][(7S)-4-{[6-(propan-2-yloxy)-1H-indazol-5-yl]amino}-5,6,7,8-tetrahydro[1]benzothieno[2,3-d]pyrimidin-7-yl]methanone]
4 | 4.3 nM | O=C([C@H]1CCc2c(sc3ncnc(Nc4cc5cn[nH]c5cc4F)c23)C1)N1CC2CC2C1 (stereo partly drawn) [Example 220, 3-Azabicyclo[3.1.0]hex-3-yl{(7S)-4-[(6-fluoro-1H-indazol-5-yl)amino]-5,6,7,8-tetrahydro[1]benzothieno[2,3-d]pyrimidin-7-yl}methanone]
5 | 2.3 nM | CN(C)C(=O)[C@H]1CCc2c(sc3ncnc(Nc4cc5cn[nH]c5cc4OCCCN=[N+]=[N-])c23)C1 [Example 110, (7S)-4-{[6-(3-Azidopropoxy)-1H-indazol-5-yl]amino}-N,N-dimethyl-5,6,7,8-tetrahydro[1]benzothieno[2,3-d]pyrimidine-7-carboxamide]
6 | 20 nM | C[C@H]1COCCN1C(=O)[C@H]1CCc2c(sc3ncnc(Nc4cc5cn[nH]c5cc4OCCN(C)C)c23)C1 [Example 117, [(7S)-4-({6-[2-(Dimethylamino)ethoxy]-1H-indazol-5-yl}amino)-5,6,7,8-tetrahydro[1]benzothieno[2,3-d]pyrimidin-7-yl][(3S)-3-methylmorpholin-4-yl]methanone]
7 | 2.8 nM | O=C([C@H]1CCc2c(sc3ncnc(Nc4cc5cn[nH]c5cc4Br)c23)C1)N1CCOCC1 [Example 237, {(7S)-4-[(6-Bromo-1H-indazol-5-yl)amino]-5,6,7,8-tetrahydro[1]benzothieno[2,3-d]pyrimidin-7-yl}(morpholin-4-yl)methanone]
8 | 12.1 nM | CC(C)Oc1cc2[nH]ncc2cc1Nc1ncnc2sc3c(c12)CC[C@@H](C(=O)N(C)C)C3 [Example 79, (7R)—N,N-Dimethyl-4-{[6-(propan-2-yloxy)-1H-indazol-5-yl]amino}-5,6,7,8-tetrahydro[1]benzothieno[2,3-d]pyrimidine-7-carboxamide]
9 | 0.2 nM | COc1cc2[nH]ncc2cc1Nc1ncnc2sc3c(c12)CC[C@H](C(=O)N1C[C@@H]2C[C@H]1CN2C)C3 [Example 120, {(7S)-4-[(6-Methoxy-1H-indazol-5-yl)amino]-5,6,7,8-tetrahydro[1]benzothieno[2,3-d]pyrimidin-7-yl}[(1S,4S)-5-methyl-2,5-diazabicyclo[2.2.1]hept-2-yl]methanone]
10 | 3.4 nM | C[C@@H]1CN(C(=O)[C@H]2CCc3c(sc4ncnc(Nc5cc6cn[nH]c6cc5Br)c34)C2)C[C@H](C)O1 [Example 234, {(7S)-4-[(6-Bromo-1H-indazol-5-yl)amino]-5,6,7,8-tetrahydro[1]benzothieno[2,3-d]pyrimidin-7-yl}[(2R,6S)-2,6-dimethylmorpholin-4-yl]methanone]
11 | 0.4 nM | COC(=O)NCCOc1cc2[nH]ncc2cc1Nc1ncnc2sc3c(c12)CC[C@H](C(=O)N(C)C)C3 [Example 258, Methyl {2-[(5-{[(7S)-7-(dimethylcarbamoyl)-5,6,7,8-tetrahydro[1]benzothieno[2,3-d]pyrimidin-4-yl]amino}-1H-indazol-6-yl)oxy]ethyl}carbamate]
12 | 0.2 nM | CC(C)Oc1cc2[nH]ncc2cc1Nc1ncnc2sc3c(c12)CC[C@H](C(=O)N1C[C@H](O)[C@@H](O)C1)C3 [Example 92, [(3S,4S)-3,4-Dihydroxypyrrolidin-1-yl][(7S)-4-{[6-(propan-2-yloxy)-1H-indazol-5-yl]amino}-5,6,7,8-tetrahydro[1]benzothieno[2,3-d]pyrimidin-7-yl]methanone]
13 | 76.3 nM | CN(C)C(=O)[C@H]1CCc2c(sc3ncnc(Nc4cc5cn[nH]c5cc4OCCN4CCCC4)c23)C1 [Example 112, (7S)—N,N-Dimethyl-4-({6-[2-(pyrrolidin-1-yl)ethoxy]-1H-indazol-5-yl}amino)-5,6,7,8-tetrahydro[1]benzothieno[2,3-d]pyrimidine-7-carboxamide]
14 | 6 nM | CC(C)Oc1cc2[nH]ncc2cc1Nc1ncnc2sc3c(c12)CC[C@@H](C(=O)N1CC2(COC2)C1)C3 [Example 89, 2-Oxa-6-azaspiro[3.3]hept-6-yl[(7R)-4-{[6-(propan-2-yloxy)-1H-indazol-5-yl]amino}-5,6,7,8-tetrahydro[1]benzothieno[2,3-d]pyrimidin-7-yl]methanone]
15 | 0.4 nM | CCOc1cc2[nH]ncc2cc1Nc1ncnc2sc3c(c12)CC[C@H](C(=O)N1C[C@H](O)[C@@H](O)C1)C3 [Example 76, [(3S,4S)-3,4-Dihydroxypyrrolidin-1-yl]{(7S)-4-[(6-ethoxy-1H-indazol-5-yl)amino]-5,6,7,8-tetrahydro[1]benzothieno[2,3-d]pyrimidin-7-yl}methanone]
16 | 3.2 nM | COCCN(C)C(=O)[C@H]1CCc2c(sc3ncnc(Nc4ccc5[nH]ncc5c4)c23)C1 [Example 13, (7S)-4-(1H-Indazol-5-ylamino)-N-(2-methoxyethyl)-N-methyl-5,6,7,8-tetrahydro[1]benzothieno[2,3-d]pyrimidine-7-carboxamide]
17 | 0.4 nM | CC(C)Oc1cc2[nH]ncc2cc1Nc1ncnc2sc3c(c12)CC[C@H](C(=O)N(C)CCC(F)(F)F)C3 [Example 125, (7S)—N-Methyl-4-{[6-(propan-2-yloxy)-1H-indazol-5-yl]amino}-N-(3,3,3-trifluoropropyl)-5,6,7,8-tetrahydro[1]benzothieno[2,3-d]pyrimidine-7-carboxamide]
18 | 0.5 nM | COc1cc2[nH]ncc2cc1Nc1ncnc2sc3c(c12)CC[C@H](C(=O)N1C[C@H]2C[C@@H]1CO2)C3 [Example 34, {(7S)-4-[(6-Methoxy-1H-indazol-5-yl)amino]-5,6,7,8-tetrahydro[1]benzothieno[2,3-d]pyrimidin-7-yl}[(1R,4R)-2-oxa-5-azabicyclo[2.2.1]hept-5-yl]methanone]
19 | 24.5 nM | CN(C)C(=O)[C@H]1CCc2c(sc3ncnc(Nc4cc5cn[nH]c5cc4N4CCC4)c23)C1 [Example 102, (7S)-4-{[6-(Azetidin-1-yl)-1H-indazol-5-yl]amino}-N,N-dimethyl-5,6,7,8-tetrahydro[1]benzothieno[2,3-d]pyrimidine-7-carboxamide]
20 | 4 nM | O=C([C@H]1CCc2c(sc3ncnc(Nc4cc5cn[nH]c5cc4Cl)c23)C1)N1CCOCC1 [Example 231, {(7S)-4-[(6-Chloro-1H-indazol-5-yl)amino]-5,6,7,8-tetrahydro[1]benzothieno[2,3-d]pyrimidin-7-yl}(morpholin-4-yl)methanone]
21 | 0.3 nM | CC(C)Oc1cc2[nH]ncc2cc1Nc1ncnc2sc3c(c12)CC[C@H](C(=O)N(C)CC(F)F)C3 [Example 81, (7S)—N-(2,2-Difluoroethyl)-N-methyl-4-{[6-(propan-2-yloxy)-1H-indazol-5-yl]amino}-5,6,7,8-tetrahydro[1]benzothieno[2,3-d]pyrimidine-7-carboxamide]
22 | 1.1 nM | CCCC(=O)NCCOc1cc2[nH]ncc2cc1Nc1ncnc2sc3c(c12)CC[C@H](C(=O)N(C)C)C3 [Example 270, (7S)-4-({6-[2-(Butanoylamino)ethoxy]-1H-indazol-5-yl}amino)-N,N-dimethyl-5,6,7,8-tetrahydro[1]benzothieno[2,3-d]pyrimidine-7-carboxamide]
23 | 1.2 nM | COc1cc2[nH]ncc2cc1Nc1ncnc2sc3c(c12)CC[C@H](C(=O)N1C[C@@H](C)O[C@@H](C)C1)C3 [Example 161, [(2R,6S)-2,6-dimethylmorpholin-4-yl]{(7S)-4-[(6-methoxy-1H-indazol-5-yl)amino]-5,6,7,8-tetrahydro[1]benzothieno[2,3-d]pyrimidin-7-yl}methanone]

Same assay, conditions: Table 2; ratio of the IC50-value of an R-enantiomer and its corresponding S-enantiomer

Row | Activity-Ratio MKNK1 | Compound
24 | 27.5 | CC(C)Oc1cc2[nH]ncc2cc1Nc1ncnc2sc3c(c12)CC[C@H](C(=O)N(C)CC(F)F)C3 [Example 81, (7S)—N-(2,2-Difluoroethyl)-N-methyl-4-{[6-(propan-2-yloxy)-1H-indazol-5-yl]amino}-5,6,7,8-tetrahydro[1]benzothieno[2,3-d]pyrimidine-7-carboxamide]
